Assay results taken from patent publication US9303092B2, “Methamphetamine-like hapten compounds, linkers, carriers and compositions and uses thereof” (The Board of Trustees of the University of Arkansas, priority 2000, dated 2016).

How the values were obtained:
[1] = after intravenous (+)-methamphetamine; cited from earlier work
[2] = test system: discriminative stimulus effects of (+)-methamphetamine; assay: Drug discrimination in rats; settings: i.p., group III
[3] = test system: discriminative stimulus effects of (+)-methamphetamine; assay: Drug discrimination in pigeons; settings: i.m.
Description: The pigeons used in these experiments had performed in experiments previously.
Training continued for 40 min or until the pigeons had received 20 reinforcers, whichever occurred first. […] In the determination of cumulative dose-response curves, a dose of drug was administered and the pigeon was placed in the chamber for 10 min, after which the chamber and key lights were illuminated. The pigeon was tested for 5 min or until one food reinforcer had been delivered, whichever occurred first. Food was delivered following the completion of 20 responses on one of the two keys. After food had been delivered, or the session had timed out, the bird was removed from the chamber, a higher dose was administered, and the process was repeated.
Because only a few birds were still available for these experiments, the data for days 1-2 and days 7-8 were combined.
All doses are expressed as the salts.

[4] = (+)-Methamphetamine and (+)-amphetamine pharmacokinetic studies in serum and brain with and without mAb6H4; settings: for AUC(0-t): male, Sprague-Dawley, rat, in vivo, Serum
Description: This allowed the administration of approximately 100 μCi per rat by injection of 1 μl/g of rat body weight.
Male Sprague-Dawley rats were randomly placed into two groups. […] Ethyl ether was used for anesthesia so that hemodynamic stability could be maintained before animal sacrifice. Immediately after blood collection, the rats were decapitated and the brain was removed. The brain was rinsed with saline, weighed, and placed in liquid nitrogen within 3 min of decapitation. Hematocrit values were obtained for each animal. The blood was allowed to clot and serum was obtained after centrifugation. The serum and brain tissues were stored at −80° C. until analyzed.
The second group was the mAb-treatment group. All aspects of the experiment were same as those described for the control group, with the following exception. […] The mAb was given via the jugular venous catheter in an 8-ml volume at 2 ml/min. Because the experimental protocol was the same up until the mAb was administered, the time points before 30 min were not repeated in this group.
For serum analysis, 300 μl of guanidine HCl was added to 200-μl of each serum sample to denature the proteins. The samples were vortexed and placed on a gentle shaker for 30 min. […] After sample application, the cartridges were centrifuged at 230 g for 1 min, washed with 1 ml of water, and then centrifuged. […] Then, 1 ml of methanol:acetic acid (98:2) was added, followed by centrifugation.
A 200-μl aliquot was then added to 300 μl of 8 M guanidine HCl. The mixture was vortexed and gently shaked for 30 min. […] The mixture was vortexed, placed on ice for 5 min, and centrifuged at 12,500 g for 5 min.
Supernatants from the brain samples were applied to conditioned extraction cartridges and then centrifuged at 600 g for 4 min. The brain precipitates left over from the 12,500 g centrifugation were resuspended in 500 μl of water and centrifuged at 12,500 g for 3 min. The supernatants were then added to their respective extraction columns and centrifuged at 600 g for 4 min. This was followed by a 1-ml water wash, with another 4 min centrifugation at 600 g. Finally, the cartridges were placed in siliconized test tubes for sample collection. The elution process was as described for the serum samples.
After elution, the samples were taken to dryness over 3 h in a vacuum centrifuge (Savant Instruments, Inc., Farmingdale, N.Y.) with no heat or cryopumping.
The data were fit to both two- and three-compartment i.v. bolus models, with y (predicted concentration), 1/y, or 1/y^2 weighting. The best-fit line was chosen by visual inspection and analysis of the residuals. […] All pharmacokinetic analysis was performed with the use of WinNonlin V3.0 (Pharsight Corporation, Mountain View, Calif.).

mAb6H4 = assay: RIA binding specificity, relative potency to METH; design: species or system mouse; settings: RIA IC50 value for METH/RIA IC50 value for test ligand
mAb6H8 = assay: RIA binding specificity, relative potency to METH; design: species or system mouse; settings: RIA IC50 value for METH/RIA IC50 value for test ligand
mAb4G9 = assay: RIA binding specificity, relative potency to METH; design: species or system mouse; settings: RIA IC50 value for METH/RIA IC50 value for test ligand
[5] = test system: (+)-methamphetamine-induced locomotor activity; assay: (+)-Methamphetamine locomotor activity studies, rat overdose model, mAb at t=30 min; type: in vivo
Description: The parameters of distance traveled (in centimeters or meters), number of rearing events, and time spent moving (in seconds) were individually quantified for each animal. […] Briefly, animals were placed in polyethylene chambers that contained a bedding of dark-gray clay. Animal behavior was videotaped, and the video images were digitized and quantitated in 4-min intervals by EthoVision software (Noldus Information Technology Inc., Sterling, Va.). The duration of drug action was calculated for each parameter starting at 30 min (time of treatment) and until the locomotor activity returned to baseline.
Rats were habituated to the behavioral monitoring chambers before the start of the experimental protocol. This was accomplished by placing the rats in the chambers for a minimum of 3 h per day for 4-6 consecutive days. […] The rats in each group were dosed every three days for a total of 10 days.
On day 1, all groups received saline followed at 30 min by mAb buffer to obtain baseline (non-drug-induced) behavior.
All control buffer and mAb solutions were administered via the jugular venous catheter in an 8-ml volume at 2 ml/min. Three days after the end of the experimental protocol for the 1-mg/kg group, locomotor activity from a second saline administration was monitored to determine whether any changes had occurred in baseline activity.
All other aspects of the protocol were as just described.

[6] = test system: methamphetamine-induced locomotor activity; assay: Anti-METH Fab treatment of methamphetamine-induced behavioral effects; type: in vivo, rat; settings: 1 mg/kg iv methamphetamine, treatment at 30 min
Description: Rats (n=4 per group) were administered saline (left most bar) or 1.0 mg/kg d-methamphetamine as an intravenous bolus dose. When drug effects were maximizing at 30 minutes, they were treated with saline (control), an anti-phencyclidine monoclonal antibody Fab fragment (anti-PCP), or an anti-d-methamphetamine-specific monoclonal antibody Fab fragment (anti-methamphetamine).

[7] = test system: (+)methamphetamine induced effects; assay: Pretreatment with anti-(+)methamphetamine monoclonal antibody before 1 mg/kg (+)methamphetamine challenge; type: in vivo, rat; settings: 1.0 mg/kg i.v.
Description: Rats (n=7/group) were administered a dose of […] of anti-methamphetamine monoclonal antibody on day 1. The following day they were administered i.v. (+)methamphetamine (1.0 mg/kg) 3 days apart on two occasions to stabilize locomotor responses and to minimize sensitization.

[8] = from Riviere et al. (1999); cited from earlier work
[9] = Preliminary studies of high i.v. (+)-methamphetamine doses

Compound	Relative Potency to METH, mAb6H4 (mAb6H4)	Relative Potency to METH, mAb6H8 (mAb6H8)	Relative Potency to METH, mAb4G9 (mAb4G9)	further results
CC(N)Cc1ccccc1 (single isomer, unassigned; (+)) [(+)AMP, (+)-amphetamine]	–	–	–	time to peak plasma levels of (+)-amphetamine [1]: ≤ 20 min; potency of (+)-methamphetamine and (+)-amphetamine as discriminative stimuli compared [2]: nearly equipotent; potency of (+)-methamphetamine and (+)-amphetamine compared [3]: approximately equipotent; AUC38 min-[…] Treated ([4]; Brain, 1-mol equivalent dose of mAb at 30 min): 284 ng·h/g; AUC38 min-[…] Control ([4]; Brain, without treatment): 530 ng·h/g; AUC(0-t) ([4]; AUC38 min-[…] Control, without treatment): 55 ng·h/mL; AUC(0-t) ([4]; AUC38 min-[…] Treated, 1-mol equivalent dose of mAb at 30 min): 73 ng·h/mL
CC(N)Cc1ccc2c(c1)OCO2 (single isomer, unassigned; (+)) [(+)MDA]	0.001	0.024	0.090	–
CNC(C)Cc1ccc2c(c1)OCO2 (single isomer, unassigned; (+)) [(+)MDMA, (+)-3,4-methylenedioxymethamphetamine]	1.25	3.40	0.29	–
CC(N)C(O)c1ccccc1 (single isomer, unassigned; (+)) [(+)phenylpropanolamine]	<0.001	<0.001	<0.001	–
CC(N)Cc1ccc2c(c1)OCO2 (single isomer, unassigned; (-)) [(−)MDA]	<0.001	<0.001	0.002	–
CNC(C)Cc1ccc2c(c1)OCO2 (single isomer, unassigned; (-)) [(−)MDMA]	0.007	0.018	0.011	–
CNC(C)Cc1ccc(O)cc1 (centres unmarked) [4-OH-METH]	0.588	0.294	0.106	–
CN[C@H](C)[C@@H](O)c1ccccc1 [(+)ephedrine]	<0.001	<0.001	<0.001	–
CN[C@H](C)Cc1ccccc1 [(−)METH]	0.030	0.011	0.102	–
CNC[C@H](O)c1cccc(O)c1 [/-phenylphrine]	0.001	<0.001	<0.001	–
NCCc1ccc(O)c(O)c1 [dopamine]	<0.001	<0.001	<0.001	–
CNC[C@H](O)c1ccc(O)c(O)c1 [epinephrine]	<0.001	<0.001	<0.001	–
NC[C@H](O)c1ccc(O)c(O)c1 [norepinepherine]	<0.001	<0.001	<0.001	–
NCCc1c[nH]c2ccc(O)cc12 [serotonin]	<0.001	<0.001	<0.001	–
NCCc1ccc(O)cc1 [tyramine]	<0.001	<0.001	<0.001	–
NCCc1ccccc1 [β-phenylethylamine]	<0.001	<0.001	0.001	–
(+)-methamphetamine [(+)METH]	–	–	–	duration of (+)-methamphetamine-induced locomotor effects following buffer ([5]; 0.3-mg/kg dose): approximately 1 h; duration of (+)-methamphetamine-induced locomotor effects following buffer ([5]; 1.0-mg/kg dose): ~2 h; duration of drug action following buffer ([5]; 3.0-mg/kg group): 4 h; duration of action / activity, distance traveled parameter [6]: 116 ± 17 min; duration of action of (+)methamphetamine without the monoclonal antibody [7]: about 160 min; t1/2dist of (+)-methamphetamine in serum [8]: 9 min; potency of (+)-methamphetamine and (+)-amphetamine as discriminative stimuli compared [2]: nearly equipotent; potency of (+)-methamphetamine and (+)-amphetamine compared [3]: approximately equipotent; doses sometimes lethal [9]: 10 mg/kg; i.v. doses that led to self-mutilation [9]: ≥ 5.2 mg/kg
(+)norpseudoephedrine	<0.001	<0.001	<0.001	–
(+)pseudoephedrine	<0.001	0.018	0.004	–
